Where two headings read alike, the source gives them in different places.
System: IL-1β secretion in THP-1 cells (NLRP3)
Experiment: IL-1β secretion assay in PMA-differentiated THP-1 cells stimulated with LPS and nigericin (ELISA readout)
Type: cell-based
Settings: IL-1β ELISA
Description: Compounds as provided herein were tested in the following assay. Cell culture medium employed contained RPMI 1640 medium (89%), FBS (10%), Pen/Strep (1%), and 2-mercaptoethanol (0.05 mM). Freezing medium was made up of 90% FBS and 10% DMSO. THP-1 cells were removed from the liquid nitrogen and placed into a 37° C. water bath to thaw, until signs of ice dissipated. The cells were then added to 9 mL of warm cell culture medium and centrifuged for 5 minutes at 1000 rpm. The supernatant was discarded, and the cells were resuspended in new cell culture medium. THP-1 cells were then split and cultured in the cell culture medium, being passaged every 2-3 days with the cell density will be maintained between 5×10^5 and 1.5×10^6 viable cells/mL.
To freeze, cells were resuspended with fresh freezing medium, adjusting the cell density to 5×10^6 cells/mL. The cell suspension was partitioned into 1 mL aliquots per vial, and the vials were transferred to a −80° C. freezer. After one day at −80° C., the cell vials were transferred to liquid nitrogen freezer for storage.
PMA was dissolved in DMSO to make a stock solution at 5 mg/ml and stored in 10 μl aliquots at −20° C. for single use. PMA is added to normal growth medium. LPS was diluted with 1 mL of water solution to provide a 1 mg/mL stock solution and stored in 15 μl aliquots at −20° C. for single use. Nigericin is diluted in ice cold 100% ethanol to 5 mg/ml (6.7 mM) and stored in 75 μL aliquots at −20° C. for single use. Serum-free media contains RPMI 1640 medium (99%), Pen/Strep (1%), and 2-mercaptoethanol (0.05 mM). The two control conditions used to qualify and normalize test compound dose-response curves were as follows: High Control=25 ng/mL LPS, […], 0.5% DMSO, Low Control=25 ng/mL, LPS, 0.5% DMSO.
THP-1 cells were diluted to provide a suspension at a concentration of 1.0×10^6 cells/mL with the total volume of suspension required to enable the desired number of assay plates. The growth media was supplemented with PMA (5 ng/mL final concentration) and the cells were incubated at 37° C. under a humidified atmosphere of 5% CO2 for 40 h.
All media was carefully aspirated from each culture flask. The cells were washed carefully with 1×DPBS. The cells were then briefly digested with trypsin LE for 5 minutes at 23° C. and immediately resuspended in cell growth media. After resuspension, the cells were centrifuged at 1000 rpm for 3 minutes and the supernatant was discarded. The cells were resuspended in DPBS and once again centrifuged at 1000 rpm for 5 minutes. The supernatant was discarded and the cell pellet was resuspended in serum-free media supplemented with LPS (25 ng/mL final concentration) to enable the distribution of 30K THP-1 cells within 45 μL of media into each well of 384-well PDL-coated plates. The 384-well plates were then incubated at 37° C. under a humidified atmosphere of 5% CO2 for 2 h. Following this period, test compounds were dispensed by Tecan across the desired concentration range with all wells normalized to a final 0.5% DMSO concentration. The plates were then then incubated at 37° C. under a humidified atmosphere of 5% CO2 for 1 h. Following this period, 5 μL of the 5 mg/mL nigericin stock solution was added to each of the appropriate wells and plates were centrifuged at 1000 rpm for 30 seconds. The plates were the immediately reintroduced to the incubator at 37° C. under a humidified atmosphere of 5% CO2 for 2 h. After this time, 35 μL/well of supernatant was collected and transferred into v-bottom plate and centrifuged at 1000 rpm for 1 minute. These supernatant aliquots were analyzed using an IL-Iβ detection kit as described below. If needed, the test samples could be snap frozen and stored at −80° C. until analyzed.
To prepare each ELISA plate, capture antibody (mAb Mt175) was diluted with PBS to a final concentration of […] and then 20 µL of this solution was added to each well of the ELISA plate.
Each plate was allowed to incubate overnight at 4° C. […]

[1] = Homo sapiens, THP-1, Table 3, LPS 25 ng/mL + nigericin, read-out: Activity (IC50 class)
[2] = Homo sapiens, THP-1, Table 4, LPS 25 ng/mL + nigericin, read-out: Activity (IC50)

Structure (SMILES)	IC50 (Table 3, LPS 25 ng/mL + nigericin, read-out: Activity (IC50 class)) [nM]	IC50 (Table 4, LPS 25 ng/mL + nigericin, read-out: Activity (IC50)) [nM]	IC50 [1] [nM]	IC50 [2] [nM]
CC[C@@H]1CC1Oc1nn(CC(=O)Nc2ncc(F)cn2)c(=O)c2ccc(Br)cc12 (single isomer, unassigned) [Example 36, 2-[6-bromo-4-[cis-2-ethylcyclopropyl]oxy-1-oxophthalazin-2-yl]-N-(5-fluoropyrimidin-2-yl)acetamide]	< 1000	397	–	–
C[C@@H]1CC1Oc1nn(CC(=O)Nc2ncc(F)cn2)c(=O)c2ccc(Br)cc12 (stereo in doubt) [Example 52, 2-[6-bromo-4-[cis-2-methylcyclopropyl]oxy-1-oxophthalazin-2-yl]-N-(5-fluoropyrimidin-2-yl)acetamide]	–	–	< 1000	924
O=C(Cn1nc(OC2CC3(C2)CC(F)(F)C3)c2cc(Br)ccc2c1=O)Nc1ncc(F)cn1 [Example 1, 2-[6-bromo-4-(2,2-difluorospiro[3.3]heptan-6-yl)oxy-1-oxophthalazin-2-yl]-N-(5-fluoropyrimidin-2-yl)acetamide]	–	–	< 1000	10
O=C(Cn1nc(OC2CC3(CC3)C2)c2cc(Br)ccc2c1=O)Nc1ncc(F)cn1 [Example 4, 2-(6-bromo-1-oxo-4-spiro[2.3]hexan-5-yloxyphthalazin-2-yl)-N-(5-fluoropyrimidin-2-yl)acetamide]	–	–	< 1000	33
COc1nn(CC(=O)Nc2ncc(F)cn2)c(=O)c2ccc(C3(F)CC3)cc12 [Example 11, 2-[6-(1-fluorocyclopropyl)-4-methoxy-1-oxophthalazin-2-yl]-N-(5-fluoropyrimidin-2-yl)acetamide]	–	–	< 1000	136
O=C(Cn1nc(OC2CC2)c2cc(C3(F)CC3)ccc2c1=O)Nc1ncc(F)cn1 [Example 12, 2-[4-cyclopropyloxy-6-(1-fluorocyclopropyl)-1-oxophthalazin-2-yl]-N-(5-fluoropyrimidin-2-yl)acetamide]	–	–	< 1000	152
O=C(Cn1nc(OC2CC3(C2)CC(F)(F)C3)c2cc(C3(F)CC3)ccc2c1=O)Nc1ncc(F)cn1 [Example 15, 2-[4-(2,2-difluorospiro[3.3]heptan-6-yl)oxy-6-(1-fluorocyclopropyl)-1-oxophthalazin-2-yl]-N-(5-fluoropyrimidin-2-yl)acetamide]	–	–	< 1000	19
C[C@]1(O)C[C@@H](NC(=O)Cn2nc(OC3CC4(C3)CC(F)(F)C4)c3cc(Br)ccc3c2=O)C1 [Example 16, 2-[6-bromo-4-(2,2-difluorospiro[3.3]heptan-6-yl)oxy-1-oxophthalazin-2-yl]-N-(cis-3-hydroxy-3-methylcyclobutyl)acetamide]	–	–	< 1000	137
C[C@]1(O)C[C@@H](NC(=O)Cn2nc(OC3CC3)c3cc(Br)ccc3c2=O)C1 [Example 23, 2-(6-bromo-4-cyclopropyloxy-1-oxophthalazin-2-yl)-N-(cis-3-hydroxy-3-methylcyclobutyl)acetamide]	–	–	< 1000	312
COc1nn(CC(=O)N[C@H]2C[C@@](C)(O)C2)c(=O)c2ccc(Br)cc12 [Example 24, 2-(6-bromo-4-methoxy-1-oxophthalazin-2-yl)-N-(cis-3-hydroxy-3-methylcyclobutyl)acetamide]	–	–	< 1000	183
O=C(Cn1nc(OC2CC2)c2cc(Br)ccc2c1=O)Nc1nc2ccccn2n1 [Example 27, 2-(6-bromo-4-cyclopropyloxy-1-oxophthalazin-2-yl)-N-([1,2,4]triazolo[1,5-a]pyridin-2-yl)acetamide]	–	–	< 1000	235
O=C(Cn1nc(OC2CC2)c2cc(I)ccc2c1=O)Nc1ncc(F)cn1 [Example 28, 2-(4-cyclopropyloxy-6-iodo-1-oxophthalazin-2-yl)-N-(5-fluoropyrimidin-2-yl)acetamide]	–	–	< 1000	21
Cc1cnc(NC(=O)Cn2nc(OC3CC4(CC4)C3)c3cc(Br)ccc3c2=O)nc1 [Example 29, 2-(6-bromo-1-oxo-4-spiro[2.3]hexan-5-yloxyphthalazin-2-yl)-N-(5-methylpyrimidin-2-yl)acetamide]	–	–	< 1000	26
N#Cc1cnc(NC(=O)Cn2nc(OC3CC4(CC4)C3)c3cc(Br)ccc3c2=O)nc1 [Example 30, 2-(6-bromo-1-oxo-4-spiro[2.3]hexan-5-yloxyphthalazin-2-yl)-N-(5-cyanopyrimidin-2-yl)acetamide]	–	–	< 1000	50
O=C(Cn1nc(OC2CC3(CC3)C2)c2c(F)c(C3CC3)ccc2c1=O)Nc1ncc(F)cn1 [Example 31, 2-(6-cyclopropyl-5-fluoro-1-oxo-4-spiro[2.3]hexan-5-yloxyphthalazin-2-yl)-N-(5-fluoropyrimidin-2-yl)acetamide]	–	–	< 1000	66
COc1nn(CC(=O)Nc2ncc(F)cn2)c(=O)c2ccc(C3CC3)c(F)c12 [Example 32, 2-(6-cyclopropyl-5-fluoro-4-methoxy-1-oxophthalazin-2-yl)-N-(5-fluoropyrimidin-2-yl)acetamide]	–	–	< 1000	183
COc1nn(CC(=O)Nc2ncc(F)cn2)c(=O)c2ccc(C3CC3)c(OC)c12 [Example 33, 2-(6-cyclopropyl-4,5-dimethoxy-1-oxophthalazin-2-yl)-N-(5-fluoropyrimidin-2-yl)acetamide]	–	–	< 1000	625
O=C(Cn1nc(OC2CC2)c2cc(Cl)ccc2c1=O)Nc1ncc(F)cn1 [Example 34, 2-(6-chloro-4-cyclopropyloxy-1-oxophthalazin-2-yl)-N-(5-fluoropyrimidin-2-yl)acetamide]	–	–	< 1000	408
O=C(Cn1nc(OC2CC2)c2cc(OC(F)F)ccc2c1=O)Nc1ncc(F)cn1 [Example 37, 2-[4-cyclopropyloxy-6-(difluoromethoxy)-1-oxophthalazin-2-yl]-N-(5-fluoropyrimidin-2-yl)acetamide]	–	–	< 1000	424
Cc1cnc(NC(=O)Cn2nc(OC3CC3)c3cc(Br)ccc3c2=O)nn1 [Example 38, 2-(6-bromo-4-cyclopropyloxy-1-oxophthalazin-2-yl)-N-(6-methyl-1,2,4-triazin-3-yl)acetamide]	–	–	< 1000	444
O=C(Cn1nc(OC2CC2)c2cc(C3CCC3)ccc2c1=O)Nc1ncc(F)cn1 [Example 39, 2-(6-cyclobutyl-4-cyclopropyloxy-1-oxophthalazin-2-yl)-N-(5-fluoropyrimidin-2-yl)acetamide]	–	–	1000 to 10000	1120
O=C(Cn1nc(OC2CC3(CCC3)C2)c2cc(Br)ccc2c1=O)Nc1ncc(F)cn1 [Example 40, 2-(6-bromo-1-oxo-4-spiro[3.3]heptan-2-yloxyphthalazin-2-yl)-N-(5-fluoropyrimidin-2-yl)acetamide]	–	–	< 1000	17
O=C(Cn1nc(OC2CC3(CC3)C2)c2cc(Br)ccc2c1=O)Nc1ncc(Cl)cn1 [Example 41, 2-(6-bromo-1-oxo-4-spiro[2.3]hexan-5-yloxyphthalazin-2-yl)-N-(5-chloropyrimidin-2-yl)acetamide]	–	–	< 1000	52
O=C(Cn1nc(OC2CC(C(F)(F)F)C2)c2cc(Br)ccc2c1=O)Nc1ncc(F)cn1 (stereo not drawn) [Example 42, 2-[6-bromo-1-oxo-4-[3-(trifluoromethyl)cyclobutyl]oxyphthalazin-2-yl]-N-(5-fluoropyrimidin-2-yl)acetamide]	–	–	< 1000	360
